# Reference: the supplement of paper PMC10307832
# What was measured:
# Test in all cases: relative viability (nuclei count vs DMSO), 5 days (fraction); higher = more cells survive
# Seliciclib + Lapatinib = compound: CC[C@H](CO)Nc1nc(NCc2ccccc2)c2ncn(C(C)C)c2n1 [Seliciclib] + CS(=O)(=O)CCNCc1ccc(-c2ccc3ncnc(Nc4ccc(OCc5cccc(F)c5)c(Cl)c4)c3c2)o1 [Lapatinib] (partner 2 µM)
# Outline: (§1)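 For relative viability, nuclei counts in treated wells were divided by those in vehicle wells. Lung cancer cell lines had been pin-tool dosed in 1536-well plates the day after seeding and cultured for 5 days, then fixed and stained in one step (final 0.05% Triton X-100, 1% formaldehyde, 1 ug/ml Hoechst) and imaged at 4×. Doses were one drug alone or a fixed anchor-drug dose plus five library-drug doses (not always all listed) in √10 steps, and values are duplicate-plate medians.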
# Seliciclib + Olaparib = compound: CC[C@H](CO)Nc1nc(NCc2ccccc2)c2ncn(C(C)C)c2n1 [Seliciclib] + O=C(c1cc(Cc2n[nH]c(=O)c3ccccc23)ccc1F)N1CCN(C(=O)C2CC2)CC1 [Olaparib] (partner 8 µM)
# Outline: as §1
# Seliciclib + Phenformin = compound: CC[C@H](CO)Nc1nc(NCc2ccccc2)c2ncn(C(C)C)c2n1 [Seliciclib] + N=C(N)NC(=N)NCCc1ccccc1 [Phenformin] (partner 250 µM)
# Outline: as §1
# Seliciclib + Trametinib = compound: CC[C@H](CO)Nc1nc(NCc2ccccc2)c2ncn(C(C)C)c2n1 [Seliciclib] + CC(=O)Nc1cccc(-n2c(=O)n(C3CC3)c(=O)c3c(Nc4ccc(I)cc4F)n(C)c(=O)c(C)c32)c1 [Trametinib] (partner 0.02 µM)
# Outline: as §1
Cell Line,relative viability (Seliciclib + Lapatinib; first compound 0.08 µM),relative viability (Seliciclib + Lapatinib; first compound 0.253 µM),relative viability (Seliciclib + Lapatinib; first compound 0.8 µM),relative viability (Seliciclib + Lapatinib; first compound 2.53 µM),relative viability (Seliciclib + Lapatinib; first compound 8 µM),relative viability (Seliciclib + Olaparib; first compound 0.08 µM),relative viability (Seliciclib + Olaparib; first compound 0.253 µM),relative viability (Seliciclib + Olaparib; first compound 0.8 µM),relative viability (Seliciclib + Olaparib; first compound 2.53 µM),relative viability (Seliciclib + Olaparib; first compound 8 µM),relative viability (Seliciclib + Phenformin; first compound 0.08 µM),relative viability (Seliciclib + Phenformin; first compound 0.253 µM),relative viability (Seliciclib + Phenformin; first compound 0.8 µM),relative viability (Seliciclib + Phenformin; first compound 2.53 µM),relative viability (Seliciclib + Phenformin; first compound 8 µM),relative viability (Seliciclib + Trametinib; first compound 0.08 µM),relative viability (Seliciclib + Trametinib; first compound 0.253 µM),relative viability (Seliciclib + Trametinib; first compound 0.8 µM),relative viability (Seliciclib + Trametinib; first compound 2.53 µM),relative viability (Seliciclib + Trametinib; first compound 8 µM)
A-427,1.03,1.08,1.13,1.02,1.01,0.79,0.714,0.712,0.617,0.639,0.325,0.354,0.307,0.276,0.295,0.767,0.816,0.797,0.678,0.586
H3255,0.265,0.273,0.256,0.174,0.242,0.545,0.575,0.552,0.518,0.518,0.357,0.357,0.368,0.322,0.348,0.629,0.52,0.652,0.631,0.494
HCC-44,0.972,1.08,0.981,0.933,0.925,0.978,1.03,1.01,0.966,0.973,0.309,0.126,0.375,0.0882,0.174,1.09,1.17,0.999,0.933,1.06
NCI-H1734,1.12,0.974,1.08,0.955,0.945,0.58,0.513,0.595,0.536,0.521,0.385,0.35,0.311,0.334,0.356,0.717,0.528,0.677,0.664,0.572
NCI-H2228,1.07,1.35,1.02,1.2,0.847,0.905,0.649,0.741,0.577,0.654,0.322,0.209,0.287,0.275,0.257,0.504,0.204,0.498,0.497,0.528
COR-L23,0.921,1.14,0.929,1.12,0.87,0.302,0.451,0.345,0.364,0.297,0.435,0.534,0.465,0.378,0.382,0.577,0.464,0.577,0.566,0.471
NCI-H661,0.522,0.463,0.473,0.452,0.391,0.674,0.768,0.695,0.724,0.674,0.274,0.26,0.297,0.264,0.304,0.59,0.581,0.5,0.491,0.416
NCI-H1993,0.845,0.848,0.838,0.773,0.797,0.892,0.935,1.05,0.976,1.01,0.551,0.54,0.496,0.474,0.456,0.649,0.543,0.47,0.508,0.43
NCI-H1437,0.824,0.949,0.882,0.777,0.618,0.641,0.665,0.595,0.607,0.431,0.347,0.353,0.291,0.241,0.262,0.5,0.551,0.562,0.398,0.401
UMC-11,1.02,0.981,1.09,0.96,0.824,0.367,0.388,0.381,0.352,0.293,0.341,0.343,0.322,0.272,0.232,0.726,0.593,0.877,0.657,0.581
201T,1.08,1.07,1,0.952,0.843,0.805,0.834,0.812,0.882,0.805,0.413,0.441,0.47,0.383,0.418,0.701,0.716,0.694,0.727,0.632
NCI-H1944,0.842,0.788,0.859,0.619,0.449,0.377,0.394,0.348,0.425,0.392,0.188,0.22,0.168,0.178,0.168,0.399,0.277,0.428,0.48,0.368
NCI-H1650,0.769,0.889,0.725,0.621,0.347,0.576,0.804,0.754,0.666,0.756,0.436,0.525,0.462,0.424,0.264,0.572,0.69,0.471,0.433,0.422
LOU-NH91,0.743,0.682,0.729,0.6,0.681,–,0.93,0.891,0.925,0.782,0.609,0.666,0.671,0.589,0.552,–,0.702,0.786,0.745,0.752
HOP-62,0.937,0.931,1.04,1.06,0.864,0.445,0.398,0.299,0.264,0.391,0.665,0.699,0.75,0.713,0.576,0.377,0.302,0.377,0.418,0.431
NCI-H1915,0.951,1.13,1.02,0.936,0.853,0.27,0.287,0.273,0.227,0.196,0.448,0.403,0.376,0.373,0.328,0.315,0.277,0.307,0.292,0.288
